Data: patent publication US20150368715A1, “DIAGNOSTIC AND TREATMENT OF CHRONIC HEART FAILURE” (Institut National de la Sante et de la Recherche Medicale …, priority 2010, published 2015)

Legend:
Assay type in all cases: cell-based, rat
caspase 3 = assay: Caspase 3 activity monitoring in cardiac myoblasts; conditions: ApoO+ cells incubated with palmitate, with or without added agent, FIG. 5A, 5L, 6E, 6F
Procedure: Palmitate preparation and caspase 3 activity measurement were performed as previously described (Hickson-Bick, Buja et al. 2000; Hirota, Otabe et al. 2006).

AMPK = assay: Western blot analysis of AMPK phosphorylation; conditions: ApoO+ cardiac myoblasts, with or without palmitate; FIG. 6G
H9c2 cardiac myoblasts [1] = assay: Oxygen flow measurement (cell respiration); conditions: ApoO+ H9c2 cardiac myoblasts; CCCP 4 to 16 μM cumulative doses; FIG. 8A
H9c2 cardiac myoblasts [2] = assay: Transmission electron microscopy of palmitate treated cells; conditions: H9c2 (control) cardiac myoblasts treated with palmitate; not shown
[3] = tested on: long fatty acyl CoA synthetase; assay: Palmitoyl-coA synthase activity in H9c2 cardiac myoblasts; conditions: control and ApoO+ H9c2 cardiac myoblasts; FIG. 7H

## NC(=O)c1ncn([C@@H]2O[C@H](CO)[C@@H](O)[C@H]2O)c1N [AICAR, 5-Aminoimidazole-4-carboxyamide ribonucleoside]
Caspase 3
  caspase 3 activity: significantly reduced
AMPK
  AMPK phosphorylation: increased AMPK phosphorylation

## N#CC(C#N)=NNc1cccc(Cl)c1 [CCCP, Carbonyl cyanide m-chlorophenyl hydrazone]
H9c2 cardiac myoblasts [1]
  oxygen consumption: further increased

## CCCC[C@@H](C)[C@@H](OC(=O)C[C@@H](CC(=O)O)C(=O)O)[C@H](C[C@@H](C)C[C@H](O)CCCC[C@@H](O)C[C@H](O)[C@H](C)N)OC(=O)C[C@@H](CC(=O)O)C(=O)O [Fumonisin B1]
Caspase 3
  caspase 3 activity: lowered caspase 3 activity
Caspase 3; listed as fumonisine B
  caspase 3 activity: partially attenuated

## O=c1cc(N2CCOCC2)oc2c(-c3ccccc3)cccc12 [LY294002]
Caspase 3
  caspase 3 activity: no significant effect

## CCCCCCCCCCCCCCCC(=O)O [palmitate]
H9c2 cardiac myoblasts [2]
  mitochondrial alteration by transmission electron microscopy: no significant effect

## CCC/C=C/C/C=C/C=C/C=N/NN=O [triacsin C]
[3]
  palmitoyl-coA activity: inhibited
